Source: the supplement of paper PMC10307832

How the values were obtained:
Assay in all cases: relative viability (nuclei count vs DMSO), 5 days (fraction); higher = more cells survive
[1] = compound: Cc1ccc(C(=O)N(CCCN)[C@@H](c2nc3cc(Cl)ccc3c(=O)n2Cc2ccccc2)C(C)C)cc1 [Ispinesib] + C[C@]1(O)C[C@@H](c2nc(-c3ccc4ccc(-c5ccccc5)nc4c3)c3c(N)nccn32)C1 [Linsitinib] (partner 1 µM)
Summary of the method: (§1)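 Nuclei were stained with Hoechst during a one-step fixation (final 0.05% Triton X-100, 1% formaldehyde, 1 ug/ml Hoechst) carried out 5 days after dosing, then counted on 4× images. The cells, lung cancer lines in 1536-well plates, had been dosed by pin tool the day after seeding with one drug alone or a fixed anchor-drug dose plus five library-drug doses (not always all listed) in √10 steps. Relative viability is the nuclei count in treated wells divided by that in vehicle wells, and each value is the median of duplicate plates.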

[2] = compound: Cc1ccc(C(=O)N(CCCN)[C@@H](c2nc3cc(Cl)ccc3c(=O)n2Cc2ccccc2)C(C)C)cc1 [Ispinesib] + CS(=O)(=O)CCNCc1ccc(-c2ccc3ncnc(Nc4ccc(OCc5cccc(F)c5)c(Cl)c4)c3c2)o1 [Lapatinib] (partner 2 µM)
Summary of the method: as §1

[3] = compound: Cc1ccc(C(=O)N(CCCN)[C@@H](c2nc3cc(Cl)ccc3c(=O)n2Cc2ccccc2)C(C)C)cc1 [Ispinesib] + O=C(c1cc(Cc2n[nH]c(=O)c3ccccc23)ccc1F)N1CCN(C(=O)C2CC2)CC1 [Olaparib] (partner 8 µM)
Summary of the method: as §1

[4] = compound: Cc1ccc(C(=O)N(CCCN)[C@@H](c2nc3cc(Cl)ccc3c(=O)n2Cc2ccccc2)C(C)C)cc1 [Ispinesib] + CC(=O)c1c(C)c2cnc(Nc3ccc(N4CCNCC4)cn3)nc2n(C2CCCC2)c1=O [Palbociclib] (partner 0.5 µM)
Summary of the method: as §1

Cell Line | relative viability ([1]; first compound 0.001 µM) | relative viability ([1]; first compound 0.003162 µM) | relative viability ([1]; first compound 0.01 µM) | relative viability ([1]; first compound 0.03162 µM) | relative viability ([1]; first compound 0.1 µM) | relative viability ([2]; first compound 0.001 µM) | relative viability ([2]; first compound 0.003162 µM) | relative viability ([2]; first compound 0.01 µM) | relative viability ([2]; first compound 0.03162 µM) | relative viability ([2]; first compound 0.1 µM) | relative viability ([3]; first compound 0.001 µM) | relative viability ([3]; first compound 0.003162 µM) | relative viability ([3]; first compound 0.01 µM) | relative viability ([3]; first compound 0.03162 µM) | relative viability ([3]; first compound 0.1 µM) | relative viability ([4]; first compound 0.001 µM) | relative viability ([4]; first compound 0.003162 µM) | relative viability ([4]; first compound 0.01 µM) | relative viability ([4]; first compound 0.03162 µM) | relative viability ([4]; first compound 0.1 µM)
NCI-H2009 | 1.28 | 1.18 | 1.29 | 0.957 | 0.475 | 0.954 | 0.781 | 0.558 | 0.142 | 0.305 | 0.735 | 0.678 | 0.793 | 0.859 | 0.257 | 0.234 | 0.153 | 0.222 | 0.113 | 0.169
LC-2-ad | 0.842 | 0.845 | 0.971 | 0.556 | 0.184 | 0.949 | 1.02 | 1.07 | 0.504 | 0.114 | 0.728 | 0.728 | 0.711 | 0.816 | 0.293 | 0.541 | 0.54 | 0.566 | 0.482 | 0.272
NCI-H1437 | 1.12 | 1.28 | 1.54 | 0.995 | 0.303 | 0.98 | 0.928 | 0.901 | 0.419 | 0.206 | 0.685 | 0.653 | 0.763 | 0.7 | 0.256 | 0.329 | 0.319 | 0.325 | 0.332 | 0.13
NCI-H3122 | 1.07 | 1.09 | 1.07 | 1.13 | 0.251 | 0.986 | 1.01 | 1.07 | 0.72 | 0.21 | 0.674 | 0.683 | 0.743 | 0.615 | 0.524 | 0.221 | 0.216 | 0.216 | 0.202 | 0.157
NCI-H727 | – | 0.303 | 0.235 | 0.244 | 0.223 | – | 0.81 | 0.809 | 0.426 | 0.29 | 0.642 | 0.771 | – | 0.659 | 0.633 | 0.565 | 0.66 | – | 0.678 | 0.617
NCI-H1734 | 0.911 | 0.92 | 1 | 0.878 | 0.634 | 1.16 | 1.11 | 1.4 | 0.408 | 0.296 | 0.613 | 0.658 | 0.64 | 0.675 | 0.449 | 0.396 | 0.224 | 0.41 | 0.346 | 0.279
HCC-15 | 0.998 | 1.06 | 1.06 | 0.663 | 0.415 | 0.91 | 0.983 | 1.03 | 0.402 | 0.14 | 0.683 | 0.759 | 0.917 | 0.831 | 0.445 | 0.518 | 0.847 | 0.899 | 0.644 | 0.418
NCI-H2405 | 0.974 | 0.755 | 0.968 | 0.783 | 0.435 | 1.08 | 1.12 | 1.18 | 0.918 | 0.308 | 0.992 | 0.942 | 0.801 | 0.853 | 0.556 | 0.546 | 0.555 | 0.512 | 0.479 | 0.397
NCI-H1993 | 0.631 | 0.724 | 0.749 | 0.716 | 0.675 | 0.871 | 0.899 | 0.764 | 0.759 | 0.58 | 1.08 | 1.07 | 1.11 | 1.23 | 0.822 | 0.566 | 0.404 | 0.66 | 0.673 | 0.487
NCI-H460 | 1.02 | 0.922 | 1.09 | 0.268 | 0.0336 | 1.1 | 1.23 | 1.39 | 0.335 | 0.0345 | 0.538 | 0.504 | 0.436 | 0.597 | 0.195 | 0.288 | 0.181 | 0.184 | 0.0542 | 0.0736
NCI-H1651 | 1.16 | 0.921 | 1.18 | 1.05 | 0.203 | 0.974 | 1.02 | 1.04 | 0.234 | 0.187 | 0.183 | 0.217 | 0.179 | 0.169 | 0.19 | 0.526 | 0.57 | 0.61 | 0.518 | 0.576
NCI-H1975 | 1.01 | 0.946 | 1.06 | 0.508 | 0.189 | 0.931 | 0.907 | 0.71 | 0.302 | 0.179 | 0.864 | 0.802 | 0.842 | 0.922 | 0.181 | 0.663 | 0.683 | 0.581 | 0.311 | 0.192
NCI-H2126 | 0.732 | 0.739 | 0.749 | 0.701 | 0.775 | 0.719 | 0.804 | 0.846 | 0.781 | 0.534 | 0.986 | 0.963 | 0.981 | 1.08 | 0.85 | 0.335 | 0.393 | 0.314 | 0.339 | 0.385
201T | 1.08 | 1.06 | 1.06 | 1.01 | 0.988 | 1.06 | 1.07 | 1.1 | 0.916 | 0.431 | 0.859 | 0.905 | 0.958 | 0.822 | 0.79 | 0.378 | 0.407 | 0.361 | 0.409 | 0.345
HCC-78 | 0.51 | 0.498 | 0.509 | – | 0.151 | 0.762 | 1.47 | 0.811 | – | 0.308 | 0.876 | 0.82 | 0.887 | 0.704 | 0.59 | 0.427 | 0.586 | 0.516 | 0.473 | 0.351
NCI-H358 | 0.785 | 0.671 | 0.735 | 0.397 | 0.236 | 0.475 | 0.421 | 0.473 | 0.345 | 0.215 | 0.624 | 0.671 | 0.761 | 0.569 | 0.214 | 0.125 | 0.13 | 0.143 | 0.106 | 0.0965
